Earlier results in article PMC9897045 (ACS Omega, 2023).
Where two headings read alike, the source gives them in different places.

What was measured:
[1] = system: main protease (Mpro, 3CLpro, nsp5); settings: read-out: EC50 against main protease (Mpro)
[2] = system: SARS-CoV-2

Cn1cnc(Cn2c(=O)[nH]/c(=N\c3cc4cn(C)nc4cc3Cl)n(Cc3cc(F)c(F)cc3F)c2=O)n1 [S-217622, (6E)-6-[(6-chloro-2-methyl-2H-indazol-5-yl)imino]-3-[(1-methyl-1H-1,2,4-triazol-3-yl)methyl]-1-(2,4,5-trifluorobenzyl)-1,3,5-triazinane-2,4-dione]
EC50 [1]: 13 nM | EC50 ([2]; read-out: EC50 against SARS-CoV-2, range over strains, CPE EC50): 290 to 500 nM | EC50 ([2]; read-out: EC50 against SARS-CoV-2 Alpha strain, strain QK002): 330 nM | EC50 ([2]; read-out: EC50 against SARS-CoV-2 Beta strain, strain TY8-612): 400 nM | EC50 ([2]; read-out: EC50 against SARS-CoV-2 Delta strain, strain TY11-927-P1): 410 nM | EC50 ([2]; read-out: EC50 against SARS-CoV-2 Gamma strain, strain TY7-501): 500 nM | EC50 ([2]; read-out: EC50 against SARS-CoV-2 Omicron strain, strain TY38-873): 290 nM
